The values that follow are results of earlier work, collected in patent US20230158047A1, “METHODS AND COMPOSITIONS FOR TREATING PROSTATE CANCER” (Tavanta Therapeutics Hungary Incorporated, priority 2020, published 2023).

In this series the test system is PSA levels. The conditions noted are these: phase 3, patients who failed prior chemotherapy with taxanes.

With `CC(=O)O[C@H]1CC[C@@]2(C)C(=CC[C@@H]3[C@@H]2CC[C@]2(C)C(c4cccnc4)=CC[C@@H]32)C1` [abiraterone acetate, 3β-acetoxy-17-(3-pyridyl)-androsta-5,16-diene], the “patients with at least a 50% decline from baseline in PSA levels” value was 38%.
